The record followed here is ChEMBL document CHEMBL1201862, “PubChem BioAssay data set” (2004).

For assay [1], the target named is T1, Scavenger receptor class B member 1 (Mus musculus, UniProt Q61009).
T1 sequence (Q61009 whole entry): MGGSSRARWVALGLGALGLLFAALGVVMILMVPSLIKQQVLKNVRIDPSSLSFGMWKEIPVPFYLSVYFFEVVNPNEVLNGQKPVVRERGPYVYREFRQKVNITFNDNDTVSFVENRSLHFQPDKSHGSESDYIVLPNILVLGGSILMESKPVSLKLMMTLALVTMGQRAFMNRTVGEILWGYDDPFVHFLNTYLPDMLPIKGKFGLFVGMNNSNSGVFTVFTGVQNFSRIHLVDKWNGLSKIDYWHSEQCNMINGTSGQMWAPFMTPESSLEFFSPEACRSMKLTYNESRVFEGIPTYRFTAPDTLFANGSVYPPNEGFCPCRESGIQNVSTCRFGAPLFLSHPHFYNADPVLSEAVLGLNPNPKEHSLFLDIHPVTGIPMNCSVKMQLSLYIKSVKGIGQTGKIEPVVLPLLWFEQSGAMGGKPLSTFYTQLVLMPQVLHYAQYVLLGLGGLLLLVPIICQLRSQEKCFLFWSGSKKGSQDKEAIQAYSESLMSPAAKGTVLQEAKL
Briefly: inhibitors of SR-BI mediated HDL lipid uptake, dose response, ldlA[mSR-BI] cells, fluorescence, cherry pick (AID 493194).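 Further: cellular uptake of fluorescent DiI-labeled HDL measured as cell fluorescence.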 The assay is classed as functional, cell-based.

Assay [2] deals with T2, Lysosomal acid glucosylceramidase (Homo sapiens, UniProt P04062).
T2 sequence (P04062 whole entry): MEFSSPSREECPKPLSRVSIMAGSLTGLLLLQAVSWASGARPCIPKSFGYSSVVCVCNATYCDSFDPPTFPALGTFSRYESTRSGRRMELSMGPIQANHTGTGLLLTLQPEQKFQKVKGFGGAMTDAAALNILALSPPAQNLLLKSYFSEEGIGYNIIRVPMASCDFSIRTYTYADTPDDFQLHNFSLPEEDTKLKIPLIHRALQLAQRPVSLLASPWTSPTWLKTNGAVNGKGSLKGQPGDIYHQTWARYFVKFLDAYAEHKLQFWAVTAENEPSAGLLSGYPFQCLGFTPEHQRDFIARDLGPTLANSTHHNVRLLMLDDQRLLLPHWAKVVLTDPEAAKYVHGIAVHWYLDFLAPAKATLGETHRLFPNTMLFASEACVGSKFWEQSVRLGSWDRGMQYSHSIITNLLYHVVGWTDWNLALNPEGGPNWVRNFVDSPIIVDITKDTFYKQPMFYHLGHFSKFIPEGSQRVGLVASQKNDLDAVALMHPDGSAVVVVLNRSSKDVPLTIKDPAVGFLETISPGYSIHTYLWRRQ
The experiment in a line: Dose response cell-based high throughput screening assay to identify enhancers of beta-glucosidase activity. [Related pubchem assays: 784 ]. In kind it is functional.

In assay [3] the target is Dual specificity protein phosphatase 3 (Homo sapiens, UniProt P51452). The experiment in a line: VHR1 inhibitor Ki determination, SAR follow-up, biochemical, colorimetric (AID 2004).
In assay [4] the test system is HEK293. The experiment in a line: cells. The note with it: Homo sapiens.
The target of assay [5] is T3, Nucleotide-binding oligomerization domain-containing protein 1 (Homo sapiens, UniProt Q9Y239).
T3 sequence (Q9Y239 whole entry): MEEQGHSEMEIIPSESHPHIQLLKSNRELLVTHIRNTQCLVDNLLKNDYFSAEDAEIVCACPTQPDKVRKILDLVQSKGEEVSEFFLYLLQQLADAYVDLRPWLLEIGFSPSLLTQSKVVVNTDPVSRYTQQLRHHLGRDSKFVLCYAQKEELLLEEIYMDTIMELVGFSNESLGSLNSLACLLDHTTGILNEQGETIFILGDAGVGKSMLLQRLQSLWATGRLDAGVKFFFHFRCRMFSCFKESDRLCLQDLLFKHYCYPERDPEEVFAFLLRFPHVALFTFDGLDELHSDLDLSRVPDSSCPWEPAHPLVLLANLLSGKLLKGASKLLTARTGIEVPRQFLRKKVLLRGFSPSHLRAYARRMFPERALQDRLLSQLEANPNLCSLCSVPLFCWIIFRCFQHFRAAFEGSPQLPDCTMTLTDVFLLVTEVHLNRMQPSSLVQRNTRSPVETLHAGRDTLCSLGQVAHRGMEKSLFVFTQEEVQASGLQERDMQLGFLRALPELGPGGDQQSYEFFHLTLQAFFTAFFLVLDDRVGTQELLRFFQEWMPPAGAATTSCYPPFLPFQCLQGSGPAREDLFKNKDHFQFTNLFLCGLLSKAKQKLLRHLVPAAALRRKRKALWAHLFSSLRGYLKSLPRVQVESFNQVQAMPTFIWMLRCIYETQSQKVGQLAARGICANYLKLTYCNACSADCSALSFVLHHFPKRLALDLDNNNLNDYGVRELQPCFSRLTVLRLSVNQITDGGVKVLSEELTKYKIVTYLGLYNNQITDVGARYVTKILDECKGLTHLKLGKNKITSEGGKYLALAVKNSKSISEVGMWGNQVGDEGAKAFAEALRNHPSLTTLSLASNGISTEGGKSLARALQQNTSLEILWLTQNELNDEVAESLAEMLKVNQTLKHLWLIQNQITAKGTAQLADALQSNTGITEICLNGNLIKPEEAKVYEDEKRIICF
The experiment in a line: NOD1 signaling inhibitors, SAR follow-up, revised (AID 2333). In kind it is functional.

Assay [6] deals with Tumor necrosis factor (Homo sapiens, UniProt P01375). The experiment in a line: TNFa-triggered NF-kB activation inhibitors, SAR follow-up, cell-based, revised (AID 2337). In kind it is functional.
Assay [7] concerns the target Nucleotide-binding oligomerization domain-containing protein 2 (Homo sapiens, UniProt Q9HC29). The experiment in a line: PubChem AID 2334. In kind it is functional.
Assay [8] relates to HEK293. Briefly: cells. The assay is classed as functional, cell-based. To be noted: Homo sapiens.
For assay [9], the system named is HEK293. The experiment in a line: cells. The assay is classed as functional, cell-based. The note with it: Homo sapiens. The source holds these as a separate data set.
Assay [10] concerns HEK293. Briefly: NOD1 signaling inhibitors, primary screen, cell-based, luminescence, uHTS (AID 1578). In kind it is functional. The note with it: Homo sapiens.
Assay [11] has as its system HEK293. Briefly: NOD2 signaling inhibitors in MDP-stimulated cells, cell-based, uHTS, luminescence (AID 2001). In kind it is functional. To be noted: Homo sapiens.
For assay [12], the target named is T4, Beta-galactosidase (Escherichia coli, UniProt Q8VNN2). In kind it is functional.
Assay [13] is described as follows: inhibitors of intracellular T. cruzi replication, confirmation, NIH3T3 host cells, beta-gal luminescence (AID 2044).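 Further: intracellular parasites grown in NIH/3T3 mouse fibroblasts as host cells; luminescent beta-galactosidase reporter signal from transgenic T. cruzi replicating inside host cells; inhibitors lower the luminescence signal.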 The assay is classed as functional, cell-based.
Assay [14] deals with T5, Type-1 angiotensin II receptor (Homo sapiens, UniProt P30556).
T5 sequence (P30556 whole entry): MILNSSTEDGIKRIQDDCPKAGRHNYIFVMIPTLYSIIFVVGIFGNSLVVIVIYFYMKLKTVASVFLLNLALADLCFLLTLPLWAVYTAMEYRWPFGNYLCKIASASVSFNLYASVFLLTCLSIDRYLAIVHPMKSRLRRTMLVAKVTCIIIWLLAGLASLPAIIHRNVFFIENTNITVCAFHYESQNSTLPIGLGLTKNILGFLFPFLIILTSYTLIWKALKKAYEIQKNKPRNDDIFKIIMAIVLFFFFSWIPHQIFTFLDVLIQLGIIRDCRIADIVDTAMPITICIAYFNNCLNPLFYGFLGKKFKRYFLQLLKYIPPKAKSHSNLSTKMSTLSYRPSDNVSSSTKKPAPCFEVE
The experiment in a line: AT1 receptor antagonists, dose response, selectivity assay for APJ receptor antagonist project, cell-based, uHTS hits (AID 463214).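 Further: antagonist potency against angiotensin II stimulated AT1 response.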 In kind it is functional.

The target of assay [15] is T6, Estrogen receptor (Homo sapiens, UniProt P03372).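 Further: potency for inhibiting coactivator peptide recruitment to the receptor.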
T6 sequence (P03372 whole entry): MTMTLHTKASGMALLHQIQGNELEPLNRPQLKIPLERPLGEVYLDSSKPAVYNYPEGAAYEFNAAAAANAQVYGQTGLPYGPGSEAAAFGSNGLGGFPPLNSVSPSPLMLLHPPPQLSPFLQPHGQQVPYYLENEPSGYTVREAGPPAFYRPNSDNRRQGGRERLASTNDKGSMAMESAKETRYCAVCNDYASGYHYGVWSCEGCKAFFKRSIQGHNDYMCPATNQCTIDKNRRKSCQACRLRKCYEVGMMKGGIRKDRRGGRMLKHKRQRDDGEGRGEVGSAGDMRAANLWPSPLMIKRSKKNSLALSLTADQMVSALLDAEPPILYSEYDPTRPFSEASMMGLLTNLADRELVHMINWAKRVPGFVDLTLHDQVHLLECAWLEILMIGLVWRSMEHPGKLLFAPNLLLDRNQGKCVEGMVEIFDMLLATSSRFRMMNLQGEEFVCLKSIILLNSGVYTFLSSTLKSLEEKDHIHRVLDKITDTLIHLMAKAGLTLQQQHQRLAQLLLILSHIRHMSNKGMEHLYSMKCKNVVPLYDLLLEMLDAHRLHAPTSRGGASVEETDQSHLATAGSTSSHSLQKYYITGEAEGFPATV

Assay [16] deals with Streptococcus. Briefly: Group A Streptococcus viability loss, dose response, counter-screen for streptokinase expression inhibitor project, luminescence, BacTiterGlo (AID 1915).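 Further: potency for reduction of bacterial viability or growth.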 The assay is classed as functional, organism-based.
Assay [17] has as its target T7, Kappa-type opioid receptor (Homo sapiens, UniProt P41145). In kind it is functional.
Assay [18] deals with T4, Beta-galactosidase. Briefly: PubChem AID 485352. The assay is classed as functional.
Assay [19] concerns the target T7, Kappa-type opioid receptor. The assay is classed as functional. This is another data set of the same source.
The test system of assay [20] is Streptococcus sp. 'group A'. The experiment in a line: growth inhibition of control SK(-) GAS strain, dose response, counter-screen for streptokinase expression inhibitor project, luminescence, kanamycin, BacTiterGlo, confirmation (AID 1900). In kind it is functional, organism-based.
The nature of assay [21]: cytotoxicity toward NIH3T3 fibroblasts, dose response, counter-screen, cell-based, ATP luminescence, mouse fibroblasts (AID 2010).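 Further: cells exposed to compound for about 90 hours before reading.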 The assay is classed as functional.
Assay [22] addresses T8, Streptokinase A (Streptococcus pyogenes serotype M1, UniProt P10520).
T8 sequence (P10520 whole entry): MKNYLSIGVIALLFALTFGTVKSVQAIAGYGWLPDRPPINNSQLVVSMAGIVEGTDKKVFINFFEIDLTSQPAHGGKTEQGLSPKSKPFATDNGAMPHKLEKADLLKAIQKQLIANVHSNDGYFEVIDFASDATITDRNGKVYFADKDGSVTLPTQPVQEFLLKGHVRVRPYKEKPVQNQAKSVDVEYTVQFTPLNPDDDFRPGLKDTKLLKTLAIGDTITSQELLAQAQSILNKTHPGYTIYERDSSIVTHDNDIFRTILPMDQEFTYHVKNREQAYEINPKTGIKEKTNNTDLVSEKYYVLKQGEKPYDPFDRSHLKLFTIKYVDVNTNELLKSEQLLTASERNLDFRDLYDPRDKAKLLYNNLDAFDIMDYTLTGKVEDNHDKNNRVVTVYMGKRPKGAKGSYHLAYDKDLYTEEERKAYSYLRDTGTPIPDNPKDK
Briefly: S. pyogenes streptokinase expression inhibitors, potency, dose response, plasminogen activation absorbance, OD405 (AID 1914).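 Further: secreted streptokinase activity via plasminogen activation per viability signal from cell pellet.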 In kind it is functional, Streptococcus pyogenes M1 GAS.

In assay [23] the target is Polyadenylate-binding protein 1 (Homo sapiens, UniProt P11940). Briefly: PABP inhibition in translation initiation, SAR follow-up (AID 435018). In kind it is functional.
The target of assay [24] is Eukaryotic translation initiation factor 4H (Homo sapiens, UniProt Q15056). Briefly: eIF4H inhibition in translation initiation, SAR follow-up (AID 435011). The assay is classed as functional.

pIC50: −log10 of the molar value. Activity calls are given as the source filed them.

Nucleotide-binding oligomerization domain-containing protein 2, sequence (Q9HC29 whole entry, the tested form may be a part): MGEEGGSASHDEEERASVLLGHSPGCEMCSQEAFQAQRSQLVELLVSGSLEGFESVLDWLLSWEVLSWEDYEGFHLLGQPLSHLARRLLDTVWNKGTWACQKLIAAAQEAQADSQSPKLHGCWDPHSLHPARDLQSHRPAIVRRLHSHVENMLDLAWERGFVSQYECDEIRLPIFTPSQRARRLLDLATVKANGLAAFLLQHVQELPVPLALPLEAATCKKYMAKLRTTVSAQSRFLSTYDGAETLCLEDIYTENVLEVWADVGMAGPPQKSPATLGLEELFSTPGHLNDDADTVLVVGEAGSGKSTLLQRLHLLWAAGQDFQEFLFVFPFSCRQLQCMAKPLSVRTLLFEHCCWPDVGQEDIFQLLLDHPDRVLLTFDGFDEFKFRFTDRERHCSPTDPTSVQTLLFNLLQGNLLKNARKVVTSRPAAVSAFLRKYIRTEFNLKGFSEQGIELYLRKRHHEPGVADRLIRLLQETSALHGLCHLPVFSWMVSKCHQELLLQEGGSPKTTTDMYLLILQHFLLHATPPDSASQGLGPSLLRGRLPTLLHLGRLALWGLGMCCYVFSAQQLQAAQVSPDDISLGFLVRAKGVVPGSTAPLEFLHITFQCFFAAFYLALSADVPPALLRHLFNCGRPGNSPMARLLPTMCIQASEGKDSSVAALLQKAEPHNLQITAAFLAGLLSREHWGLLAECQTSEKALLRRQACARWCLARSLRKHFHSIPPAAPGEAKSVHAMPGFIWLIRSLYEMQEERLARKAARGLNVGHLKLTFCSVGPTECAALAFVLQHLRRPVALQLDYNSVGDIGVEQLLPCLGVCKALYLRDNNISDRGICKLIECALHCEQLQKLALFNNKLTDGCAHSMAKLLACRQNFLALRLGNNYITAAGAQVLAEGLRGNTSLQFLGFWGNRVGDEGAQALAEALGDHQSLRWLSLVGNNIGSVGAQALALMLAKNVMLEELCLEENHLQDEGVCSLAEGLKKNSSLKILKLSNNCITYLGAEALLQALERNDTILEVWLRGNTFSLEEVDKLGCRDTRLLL
Dual specificity protein phosphatase 3, sequence (P51452 whole entry): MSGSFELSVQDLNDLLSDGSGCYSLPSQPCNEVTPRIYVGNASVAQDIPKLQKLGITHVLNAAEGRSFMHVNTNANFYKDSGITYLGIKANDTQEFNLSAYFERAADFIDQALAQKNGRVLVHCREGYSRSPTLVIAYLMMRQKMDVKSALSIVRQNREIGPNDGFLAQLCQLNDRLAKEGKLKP
T7 sequence (P41145 whole entry): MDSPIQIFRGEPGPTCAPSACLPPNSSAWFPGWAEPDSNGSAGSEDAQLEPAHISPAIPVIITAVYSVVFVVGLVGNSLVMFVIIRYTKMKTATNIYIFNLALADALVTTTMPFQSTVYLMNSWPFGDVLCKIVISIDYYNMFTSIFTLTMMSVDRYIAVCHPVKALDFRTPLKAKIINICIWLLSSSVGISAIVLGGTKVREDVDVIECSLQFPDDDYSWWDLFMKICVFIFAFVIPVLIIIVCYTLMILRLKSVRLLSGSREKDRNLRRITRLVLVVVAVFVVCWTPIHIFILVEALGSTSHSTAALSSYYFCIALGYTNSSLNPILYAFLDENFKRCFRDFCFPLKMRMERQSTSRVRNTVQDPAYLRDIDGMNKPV
Tumor necrosis factor, sequence (P01375 whole entry, the tested form may be a part): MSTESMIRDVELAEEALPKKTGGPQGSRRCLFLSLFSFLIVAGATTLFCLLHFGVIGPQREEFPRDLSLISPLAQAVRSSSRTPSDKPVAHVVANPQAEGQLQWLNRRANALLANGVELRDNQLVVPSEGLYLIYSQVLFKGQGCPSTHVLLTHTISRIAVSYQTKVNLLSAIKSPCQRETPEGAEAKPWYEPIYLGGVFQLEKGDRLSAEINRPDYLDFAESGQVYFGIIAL
T4 sequence (Q8VNN2 whole entry): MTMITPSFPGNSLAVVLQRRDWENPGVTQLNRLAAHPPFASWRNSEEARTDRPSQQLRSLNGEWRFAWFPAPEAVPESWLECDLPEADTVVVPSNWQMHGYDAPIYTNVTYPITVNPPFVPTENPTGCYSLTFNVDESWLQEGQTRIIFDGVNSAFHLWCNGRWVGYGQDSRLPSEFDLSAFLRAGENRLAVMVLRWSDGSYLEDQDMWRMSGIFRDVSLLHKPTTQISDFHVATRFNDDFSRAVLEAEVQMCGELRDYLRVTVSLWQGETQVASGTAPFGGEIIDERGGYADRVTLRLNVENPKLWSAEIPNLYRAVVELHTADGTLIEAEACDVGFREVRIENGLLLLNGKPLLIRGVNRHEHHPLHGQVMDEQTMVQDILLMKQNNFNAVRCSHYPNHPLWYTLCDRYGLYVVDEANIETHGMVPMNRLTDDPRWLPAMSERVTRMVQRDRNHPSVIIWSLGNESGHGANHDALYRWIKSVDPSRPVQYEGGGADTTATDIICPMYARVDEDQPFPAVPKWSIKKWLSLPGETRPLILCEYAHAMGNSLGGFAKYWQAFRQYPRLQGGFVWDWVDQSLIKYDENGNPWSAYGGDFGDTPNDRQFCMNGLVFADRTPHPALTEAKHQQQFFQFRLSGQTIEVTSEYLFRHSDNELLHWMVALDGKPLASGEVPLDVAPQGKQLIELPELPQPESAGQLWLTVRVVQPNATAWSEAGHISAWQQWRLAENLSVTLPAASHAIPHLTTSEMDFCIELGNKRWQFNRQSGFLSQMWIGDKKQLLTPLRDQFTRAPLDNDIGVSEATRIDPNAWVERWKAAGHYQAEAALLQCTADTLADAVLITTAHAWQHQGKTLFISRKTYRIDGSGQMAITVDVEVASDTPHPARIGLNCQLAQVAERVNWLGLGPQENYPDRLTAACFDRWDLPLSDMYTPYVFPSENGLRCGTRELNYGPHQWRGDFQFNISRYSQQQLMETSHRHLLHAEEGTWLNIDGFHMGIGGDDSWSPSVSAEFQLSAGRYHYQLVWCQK
Polyadenylate-binding protein 1, sequence (P11940 whole entry): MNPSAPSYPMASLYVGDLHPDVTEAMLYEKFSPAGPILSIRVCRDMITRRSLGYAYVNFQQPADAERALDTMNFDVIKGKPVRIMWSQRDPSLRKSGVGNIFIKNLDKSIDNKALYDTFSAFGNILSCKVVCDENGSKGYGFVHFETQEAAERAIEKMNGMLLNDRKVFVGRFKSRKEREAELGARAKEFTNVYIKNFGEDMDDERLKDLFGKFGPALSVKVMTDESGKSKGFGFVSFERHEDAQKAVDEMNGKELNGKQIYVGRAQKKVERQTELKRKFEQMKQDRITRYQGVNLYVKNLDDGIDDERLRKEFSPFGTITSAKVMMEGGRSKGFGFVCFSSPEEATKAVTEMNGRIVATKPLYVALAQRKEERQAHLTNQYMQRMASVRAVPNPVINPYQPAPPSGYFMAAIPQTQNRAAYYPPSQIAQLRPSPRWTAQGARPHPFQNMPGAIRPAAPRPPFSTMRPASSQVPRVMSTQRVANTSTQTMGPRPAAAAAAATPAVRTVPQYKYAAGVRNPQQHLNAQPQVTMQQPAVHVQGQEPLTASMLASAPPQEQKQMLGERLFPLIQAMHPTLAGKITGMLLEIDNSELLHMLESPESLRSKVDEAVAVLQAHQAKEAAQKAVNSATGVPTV

Turning to `COc1ccc(OC)c(CCNC(=O)c2ccc3c(c2)N(Cc2ccc(F)cc2)CCS3)c1`, the AC50 in assay [1] was 1.7 µM (active).

Regarding `COc1cc2c(C(=O)NCCCN3CCN(c4cccc(Cl)c4)CC3)cn(C)c(=O)c2cc1OC`, the EC50 in assay [2] was > 50 µM (not active).

In the case of `CCOc1ccccc1Nc1nc(-c2sc(NC(=O)c3cccc(Cl)c3)nc2C)cs1`, the half-maximal activity concentration (AC50) in [1] is 5.75 µM (active).

Turning to `CCOc1cc(/C=C2/N=C(c3ccc(NC(C)=O)cc3)OC2=O)ccc1OCc1ccccc1`, the Ki in [3] was 22.9 µM (inactive).

`Nc1nc2ccccc2n1Cc1ccccc1Cl`: the IC50 in [4] was > 20 µM (inactive); in assay [5], 12.9 µM (active); in assay [6], 12.5 µM (active); in assay [7], 15.3 µM (active).

Take `CCCCn1c(SCC(=O)Nc2nnc(C(C)C)s2)nc2c1c(=O)n(C)c(=O)n2C`: the IC50 was > 20 µM (inactive) in [8]; > 20 µM (inactive) in [4]; 5.79 µM (active) in assay [5]; > 20 µM (inactive) in assay [9]; 5.82 µM (active) in assay [6]; 6.89 µM (active) in [7]. For the same compound, the half-inhibitory concentration (IC50) in assay [11] is 9.58 µM (active). In addition, in assay [10], the 50% effective concentration (EC50) is 7.02 µM (active).

Turning to `O=C1CC(Cc2ccccc2)C(=O)N1c1ccc(Cl)cn1` (stereo not drawn), the EC50 in [2] was > 10 µM (not active).

Regarding `CCc1cc2cc3c(cc2nc1SCC(=O)OC(C)C)OCO3`, in [1], the AC50 was 0.366 µM (active).

For `Oc1c(/C=N/c2cccc3cccnc23)sc2ccccc12`, the EC50 in assay [12] was > 31.5 µM (inactive); in [13], 2.58 µM (active); in assay [16], 9.99 µM (active); in [18], > 40 µM (inactive); in assay [20] it was 7.7 µM (active); in assay [21], > 60 µM (not active). The EC50 in assay [22] is > 150 µM (not active). Further, the IC50 in assay [14] was 2.78 µM (active); in assay [15], 5.15 µM (active); in assay [17] it was 4.86 µM (active). Moreover, the negative logarithm of the IC50 (pIC50) in assay [19] was 5.95.

As to `COc1ccc(C(=O)Nc2cccc3ncccc23)cc1`, the IC50 in assay [23] and in assay [24] was > 100 µM (inactive) throughout.

As to `CCN1CCN(C(c2ccc(OC)c(OC)c2)c2nnnn2C(C)(C)C)CC1` (stereo not drawn), in assay [2], the EC50 is > 50 µM (not active).

For `CCN1C(=O)/C(=C/c2ccoc2)C(=O)NC1=S`, in assay [3], the Ki is 56.7 µM (inactive).
